In publication PMC4956231, “Molecular Mechanisms for Drug Hypersensitivity Induced by the Malaria Parasite’s Chloroquine Resistance Transporter” (PLoS Pathogens, 2016):

System: PfCRT^K1
Assay: Trans-stimulation of [3H]CQ uptake by microinjected compound in oocytes
Format: cell-based, Plasmodium falciparum
Protocol: A subset of experiments measured the ability of unlabeled amantadine to trans-stimulate the uptake of [^3H]CQ into the oocyte. Immediately prior to the commencement of the experiment, the oocytes (days 3–4 post-injection of the cRNA) were microinjected with either amantadine (estimated intracellular concentrations of 1, 2.5, 5, 10, 15, or 20 mM) or a control treatment (buffer, spermine, or histidine; the estimated intracellular concentrations of spermine and histidine were 5 and 10 mM). The volume injected was 50 nL and the intracellular concentrations were calculated using previous estimates of the volume of stage V-VI oocytes (~400 nL [77]). The resealed oocytes were then incubated at 16–18°C in OR^2+ buffer for approximately 5 min and the influx of [^3H]CQ was measured as described above. […] The Michaelis-Menten equation was then fitted to the data to derive the kinetic parameters for the trans-stimulation of [^3H]CQ transport by amantadine.

## NC12CC3CC(CC(C3)C1)C2 [amantadine]
PfCRT^K1
  Hill coefficient (trans-stimulation of [3H]CQ uptake): 1.63 ± 0.12
Oocytes expressing PfCRT^K1 microinjected with unlabeled amantadine
  increase in the rate of CQ influx (trans-stimulation): 6.4 ± 0.2 pmol per oocyte/h
